Where two headings read alike, the source gives them in different places.
Assay: Tissue distribution of THP, DHC and protopine in rat tissues after gastric gavage administration (HPLC-UV, non-compartmental analysis)
Assay type: in vivo, Wistar male rats
Details: for AUC(0-t) / Cmax / MRT / Tmax: male, Wistar, po, 6.45 mg/kg; for AUC(0-t): read-out: AUC0–24 h of THP; for Cmax: read-out: Cmax of THP; for MRT: read-out: MRT of THP; for Tmax: read-out: Tmax of THP
Method: The experimental protocol was approved by the University's Animal Ethics Committee. […] Rats had unlimited access to water. Standard food was given until 12 h before the experiments. Rhizoma Corydalis was processed according to Pharmacopoeia of Chinese Medicine and National Guideline of Traditional Chinese Medicinal Plants Processing. Briefly, fresh Rhizoma Corydalis was boiled in water till the pith turn light brown color. Cooked rhizome was sliced into pieces (4 mm, diameter) and dried at 25 °C. Dried slices were mixed with edible vinegar (100:20, rhizome/vinegar, w/v) or yellow wine (100:10, rhizome/wine, w/v) and the slices allowed to completely absorb the vinegar or wine. The soaked slices were then stir-fried in a metallic pan over a low flame till they were completely dry. The processed Rhizoma Corydalis was added with 70% ethanol (1:30 w/v) and sonicated for 1 h at room temperature. The extract was then concentrated to remove the ethanol residue and stored at 4 °C for further use. […] The ethanol extract of the unprocessed Rhizoma Corydalis and THP, DHC and protopine pure compound were used as the controls. Three hundred and sixty healthy rats were used in total and are divided into six groups (Group 1-6, sixty rats per group). Drugs were administrated by gastric gavage method. In order to keep the dose of THP, DHC and protopine constant in each group, the amount of ethanol extract of Rhizoma Corydalis administrated was normalized based on the dose of protopine pure compound used. The dose of THP and DHC pure compound administrated was same with that in the ethanol extract of Rhizoma Corydalis. The details were listed below. […] Rats were administrated with the 70% ethanol extract of unprocessed Rhizoma Corydalis at a dose of 17.75 g extract/kg body weight. […] Rats received the extract of vinegar-processed Rhizoma Corydalis at a dose of 15 g extract/kg rat body weight. Group 3: Rats were administrated with the extract of wine processed Rhizoma Corydalis at a dose of 15.78 g extract/kg body weight. […] Rats received THP pure compound at a dose of 6.45 mg/kg body weight. Group 6: Rats were administrated 26.10 mg of DHC pure compound/kg body weight. […] Brian tissue was further dissected into six parts: cerebrum, cerebellum, diencephalons, brain stem, hippocampus and striatum. All the tissue samples were rinsed with ice-old saline and stored at -20 °C until extraction. Tissue samples were homogenized in three volumes of ice-cold biological saline and centrifuged for 10 min at 10,000 g and 4 °C. An aliquot of the supernatant (0.5 mL) was collected. Liquid-liquid extraction was used to extract THP, DHC and protopine. One hundred microliter of 1.0 μg/mL nuciferin (internal standard) was mixed with 0.5 mL aliquots of the supernatant. […] The supernatant was evaporated completely under the nitrogen stream in a 60 °C water bath. The residue was redissolved in 100 μL of methanol. A CoMetro HPLC system (CoMetro Technology Ltd, South […], NJ, USA) with 6000 PVW detector UV-VIS detector was used. […] Ltd., Liaoning, China). Other chromatographic conditions were: column temperature, 35 °C; mobile phase, acetonitrile-0.1% phosphoric acid (pH 3.0) (30:70 v/v); flow rate, 1 mL/min; wavelength, 280 nm. Pharmacokinetic parameters were estimated by non-compartmental analysis using Equiv Test/PK (Statistical Solutions Ltd., Saugus, MA, USA). The maximum concentration (Cmax) and the time to reach the maximum concentration (Tmax) were directly obtained from the observed value. All data were represented as mean ± SD. Comparison of values between groups was performed using one-way ANOVA followed by Tukey's test for comparisons among four groups.

COc1cc2c(cc1OC)[C@@H]1Cc3ccc(OC)c(OC)c3CN1CC2 [THP, tetrahydropalmatine]
AUC(0-t) (rat brainstem): 1490 ± 340 ng·h/mL
Cmax (rat brainstem): 370 ± 110 ng/mL
MRT (rat brainstem): 7.53 ± 0.26 h
Tmax (rat brainstem): 0.25 h
AUC(0-t) (rat cerebellum): 990 ± 220 ng·h/mL
Cmax (rat cerebellum): 150 ± 30 ng/mL
MRT (rat cerebellum): 9.2 ± 0.61 h
Tmax (rat cerebellum): 0.26 ± 0.02 h
AUC(0-t) (rat cerebrum): 860 ± 200 ng·h/mL
Cmax (rat cerebrum): 250 ± 72 ng/mL
MRT (rat cerebrum): 8 ± 0.25 h
Tmax (rat cerebrum): 0.26 ± 0.01 h
AUC(0-t) (rat diencephalons): 1670 ± 380 ng·h/mL
Cmax (rat diencephalons): 460 ± 130 ng/mL
MRT (rat diencephalons): 7.7 ± 0.28 h
Tmax (rat diencephalons): 0.27 ± 0.04 h
AUC(0-t) (rat heart): 1430 ± 320 ng·h/mL
Cmax (rat heart): 600 ± 180 ng/mL
MRT (rat heart): 4.83 ± 0.13 h
Tmax (rat heart): 0.25 h
AUC(0-t) (rat hippocampus): 1790 ± 400 ng·h/mL
Cmax (rat hippocampus): 470 ± 130 ng/mL
MRT (rat hippocampus): 7.04 ± 0.23 h
Tmax (rat hippocampus): 0.24 ± 0.05 h
AUC(0-t) (rat kidney): 6270 ± 1430 ng·h/mL
Cmax (rat kidney): 2050 ± 570 ng/mL
MRT (rat kidney): 4.37 ± 0.1 h
Tmax (rat kidney): 0.33 ± 0.09 h
AUC(0-t) (rat liver): 5570 ± 2600 ng·h/mL
Cmax (rat liver): 7840 ± 1740 ng/mL
MRT (rat liver): 3.99 ± 0.08 h
Tmax (rat liver): 0.21 ± 0.01 h
AUC(0-t) (rat lung): 5930 ± 1320 ng·h/mL
Cmax (rat lung): 1530 ± 450 ng/mL
MRT (rat lung): 5.34 ± 0.15 h
Tmax (rat lung): 0.26 ± 0.08 h
AUC(0-t) (rat spleen): 3270 ± 740 ng·h/mL
Cmax (rat spleen): 1540 ± 450 ng/mL
MRT (rat spleen): 4.34 ± 0.09 h
Tmax (rat spleen): 0.23 h
AUC(0-t) (rat striatum): 2470 ± 570 ng·h/mL
Cmax (rat striatum): 720 ± 210 ng/mL
MRT (rat striatum): 7.69 ± 0.26 h
Tmax (rat striatum): 0.21 ± 0.03 h
elimination of THP from the tissues (rat tissues): rarely found after 8 h
time after administration at which THP was detected in all the tissues examined (rat tissues): ≤ 5 min

From publication PMC6268586, “Effect of Wine and Vinegar Processing of Rhizoma Corydalis on the Tissue Distribution of Tetrahydropalmatine, Protopine and Dehydrocorydaline in Rats” (Molecules, 2012)
